# According to patent US7153855B2, “Pyrazolopyridinyl pyrimidine therapeutic compounds” (SmithKline Beecham Corporation, priority 2001, dated 2006):
# Test system: HSV-1
# Test: HSV-1 infection of Vero 76 cells, viral DNA detected by hybridization capture (chemiluminescence)
# Type: cell-based
# Conditions: Human alphaherpesvirus 1; HSV-1 in Vero 76 cells, MOI=0.001, compounds incubated 40–48 hours at 37° C.; read-out: IC50
# From the text: In the following example, “MEM” means Minimal Essential Media; “FBS” means Fetal Bovine Serum; “NP40” and “Igepal” are detergents; “MOI” means Multiplicity of Infection; “NaOH” means sodium hydroxide; “MgCl2” means magnesium chloride; “dATP” means deoxyadenosine 5′ triphosphate; “dUTP” means deoxyuridine 5′ triphosphate; “dCTP” means dexoxycytidine 5′ triphosphate; “dGTP” means deoxyguanosine 5′ triphosphate; “GuSCN” means Guanidinium thiocyanate; “EDTA” means ethylenediamine tetraacetic acid; “TE” means Tris-EDTA; “SCC” means sodium chloride/sodium citrate; “APE” means a solution of ammonia acetate, ammonia phosphate, EDTA; “PBS” means phosphate buffered saline; and “HRP” means horseradish peroxidase.
# Vero 76 cells were maintained in MEM with Earle's salts, L-glutamine, 8% FBS (Hyclone, A-1111-L) and 100 units/mL Penicillin-100 μg/mL Streptomycin. For assay conditions, FBS was reduced to 2%. Cells are seeded into 96-well tissue culture plates at a density of 5×10^4 cells/well after being incubated for 45 min at 37° C. in the presence of HSV-1 or HSV-2 (MOI=0.001). Test compounds are added to the wells and the plates are incubated at 37° C. for 40–48 hours. Cell lysates are prepared as follows: media was removed and replaced with 150 μL/well 0.2 N NaOH with 1% Igepal CA 630 or NP-40. Plates were incubated up to 14 days at room temperature in a humidified chamber to prevent evaporation.
# For the detection probe, a gel-purified, digoxigenin-labeled, 710-bp PCR fragment of the HSV UL-15 sequence was utilized. PCR conditions included 0.5 μM primers, 180 μM dTTP, 20 μM dUTP-digoxigenin (Boehringer Mannheim 1558706), 200 μM each of dATP, dCTP, and dGTP, 1×PCR Buffer II (Perkin Elmer), 2.5 mM MgCl2, 0.025 units/μL of AmpliTaq Gold polymerase (Perkin Elmer), and 5 ng of gel-purified HSV DNA per 100 μL Extension conditions were 10 min at 95° C., followed by 30 cycles of 95° C. for 1 min, 55° C. for 30 sec, and 72° C. for 2 min. The amplification was completed with a 10-min incubation at 72° C. Primers were selected to amplify a 728 bp probe spanning a section of the HSV1 UL15 open reading frame (nucleotides 249–977). Single-stranded transcripts were purified with Promega M13 Wizard kits. The final product was mixed 1:1 with a mixture of 6 M GuSCN, 100 mM EDTA and 200 μg/mL herring sperm DNA and stored at 4° C.
# The capture DNA plasmid (HSV UL13 region in pUC) was linearized by cutting with Xba I, denatured for 15 min at 95° C. and diluted immediately into Reacti-Bind DNA Coating Solution (Pierce, 17250, diluted 1:1 with TE buffer, pH 8) at 1 ng/μL 75 μL/well were added to Corning (#3922 or 9690) white 96-well plates and incubated at room temperature for at least 4 hrs before washing twice with 300 μL/well 0.2×SSC/0.05% Tween-20 (SSC/T buffer). The plates were then incubated overnight at room temperature with 150 μL/well 0.2 N NaOH, 1% IGEPAL and 10 μg/mL herring sperm DNA.
# Twenty-seven (27) μL of cell lysate was combined with 45 μL of hybridization solution (final concentration: 3M GuSCN, 50 mM EDTA, 100 μg/ml salmon sperm DNA, 5×Denhardt's solution, 0.25×APE, and 5 ng of the digoxigenin-labeled detection probe). APE is 1.5 M NH4-acetate, 0.15 M NH4H2 phosphate, and 5 mM EDTA adjusted to pH 6.0. Mineral oil (50 μL) was added to prevent evaporation. The hybridization plates were incubated at 95° C. for 10 minutes to denature the DNA, then incubated at 42° C. overnight. The wells were washed 6× with 300 μL/well SSC/T buffer then incubated with 75 μL/well anti-digoxigenin-HRP-conjugated antibody (Boehringer Mannheim 1207733, 1:5000 in TE) for 30 min at room temperature. The wells were washed 6× with 300 μL/well with PBS/0.05% Tween-20 before 75 μL/well SuperSignal LBA substrate (Pierce) was added. The plates were incubated at room temperature for 30 minutes and chemiluminescence was measured in a Wallac Victor reader.
# The following results were obtained for HSV-1.
row,IC50,SMILES
1,1100 nM,"COc1cccc(-c2nn3c(N(C)C)cccc3c2-c2ccnc(NC3CCCC3)n2)c1 [Example 53, 3-[2-(Cyclopentylamino)-4-pyrimidinyl]-2-(3-methoxyphenyl)-N,N-dimethylpyrazolo[1,5-a]pyridin-7-amine]"
2,650 nM,"Oc1cccc(-c2nn3c(NC4CCCC4)cccc3c2-c2ccnc(NC3CCCC3)n2)c1 [Example 54, 3-{7-(Cyclopentylamino)-3-[2-(cyclopentylamino)-4-pyrimidinyl]pyrazolo[1,5-a]pyridin-2-yl}phenol]"
3,100 nM,"c1cc(OCC2CC2)cc(-c2nn3c(NC4CCCC4)cccc3c2-c2ccnc(NC3CCCC3)n2)c1 [Example 55, N-Cyclopentyl-3-[2-(cyclopentylamino)-4-pyrimidinyl]-2-[3-(cyclopropylmethoxy)phenyl]pyrazolo[1,5-a]pyridin-7-amine]"
4,200 nM,"Fc1cccc(-c2nn3c(NC4CCCC4)cccc3c2-c2ccnc(NC3CCCC3)n2)c1 [Example 56, N-Cyclopentyl-3-[2-(cyclopentylamino)-4-pyrimidinyl]-2-(3-fluorophenyl)pyrazolo[1,5-a]pyridin-7-amine]"
5,200 nM,"Clc1cccc(-c2nn3c(NC4CCCC4)cccc3c2-c2ccnc(NC3CCCC3)n2)c1 [Example 57, 2-(3-Chlorophenyl)-N-cyclopentyl-3-[2-(cyclopentylamino)-4-pyrimidinyl]pyrazolo[1,5-a]pyridin-7-amine]"
6,400 nM,"COc1ccc(-c2nn3c(NC4CCCC4)cccc3c2-c2ccnc(NC3CC3)n2)cc1 [Example 58, N-Cyclopentyl-3-[2-(cyclopropylamino)-4-pyrimidinyl]-2-(4-methoxyphenyl)pyrazolo[1,5-a]pyridin-7-amine]"
7,400 nM,"COc1ccc(-c2nn3c(NCCN4CCOCC4)cccc3c2-c2ccnc(NC3CCCC3)n2)cc1 [Example 59, 3-[2-(Cyclopentylamino)-4-pyrimidinyl]-2-(4-methoxyphenyl)-N-[2-(4-morpholinyl)ethyl]pyrazolo[1,5-a]pyridin-7-amine]"
8,400 nM,"COc1ccc(-c2nn3c(NC4CC4)cccc3c2-c2ccnc(NC3CCCC3)n2)cc1 [Example 60, 3-[2-(Cyclopentylamino)-4-pyrimidinyl]-N-cyclopropyl-2-(4-methoxyphenyl)pyrazolo[1,5-a]pyridin-7-amine]"
9,200 nM,"COc1ccc(-c2nn3c(N4CCOCC4)cccc3c2-c2ccnc(NC3CCCC3)n2)cc1 [Example 61, N-Cyclopentyl-4-[2-(4-methoxyphenyl)-7-(4-morpholinyl)pyrazolo[1,5-a]pyridin-3-yl]-2-pyrimidinamine]"
10,100 nM,"COCCNc1cccc2c(-c3ccnc(NC4CCCC4)n3)c(-c3ccc(OC)cc3)nn12 [Example 62, 3-[2-(Cyclopentylamino)-4-pyrimidinyl]-N-(2-methoxyethyl)-2-(4-methoxyphenyl)pyrazolo[1,5-a]pyridin-7-amine]"
11,1200 nM,"COc1ccc(-c2nn3c(N4CCOCC4)cccc3c2-c2ccnc(NC3CC3)n2)cc1 [Example 63, N-Cyclopropyl-4-[2-(4-methoxyphenyl)-7-(4-morpholinyl)pyrazolo[1,5-a]pyridin-3-yl]-2-pyrimidinamine]"
12,300 nM,"COCCNc1cccc2c(-c3ccnc(NC4CC4)n3)c(-c3ccc(OC)cc3)nn12 [Example 64, 3-[2-(Cyclopropylamino)-4-pyrimidinyl]-N-(2-methoxyethyl)-2-(4-methoxyphenyl)pyrazolo[1,5-a]pyridin-7-amine]"
13,500 nM,"COc1ccc(-c2nn3c(NCCN4CCOCC4)cccc3c2-c2ccnc(NC3CC3)n2)cc1 [Example 65, 3-[2-(Cyclopropylamino)-4-pyrimidinyl]-2-(4-methoxyphenyl)-N-[2-(4-morpholinyl)ethyl]pyrazolo[1,5-a]pyridin-7-amine]"
14,1300 nM,"COc1ccc(-c2nn3c(NC4CC4)cccc3c2-c2ccnc(NC3CC3)n2)cc1 [Example 66, N-Cyclopropyl-3-[2-(cyclopropylamino)-4-pyrimidinyl]-2-(4-methoxyphenyl)pyrazolo[1,5-a]pyridin-7-amine]"
